In one assay the test system is Plasmodium berghei. Put plainly: Antimalarial activity against Plasmodium berghei infected in mouse. Type of assay: functional.
The test system of assay [1] is Plasmodium falciparum. Put plainly: Antimalarial activity against Plasmodium falciparum assessed as growth inhibition. Type of assay: functional, organism-based.
In assay [2] the test system is Plasmodium falciparum. Put plainly: Antimalarial activity against chloroquine-sensitive Plasmodium falciparum FCR-3 assessed as growth inhibition. Type of assay: functional, organism-based.

pEC50: −log10 of the molar value.

As for `O=C(C[C@H]1NCCC[C@@H]1O)Cn1cnc2ccc(O)cc2c1=O`, it took a dose of 0.3 mg/kg/day to reach the 50% effect level in the assay on Plasmodium berghei (ED50).
In the case of `O=c1c2ccccc2ncn1C[C@@H]1C[C@@H]2[C@@H](O)CCCN2CO1`, in the assay with Plasmodium falciparum [1], the negative-log EC50 (pEC50) is 8.43.
Take `COCO[C@H]1CCCN2CO[C@H](Cn3cnc4ccccc4c3=O)C[C@H]12`: the pEC50 in the assay on Plasmodium falciparum [1] is 8.07.
The same measure, in the same setting: for `CC(=O)O[C@H]1CCCN(C(C)=O)[C@@H]1CC(=O)Cn1cnc2ccccc2c1=O` the value was 6.04; for `CCOC(=O)N1CCC[C@H](O)[C@H]1CC(=O)Cn1cnc2ccccc2c1=O`, 5.32; for `O=C(C[C@H]1NCCCC1=O)Cn1cnc2ccccc2c1=O`, 7.70.
In the assay with Plasmodium berghei, `O=C(C[C@H]1NCC[C@H](O)[C@@H]1O)Cn1cnc2ccccc2c1=O` showed an ED50 of 2.4 mg/kg/day.
Take `O=C(C[C@@H]1NCCC[C@H]1O)Cn1cnc2ccccc2c1=O` (stereo in doubt; (+)-1) [FEBRIFUGINE]: the pEC50 with Plasmodium falciparum [2] was 10.12. The 50% effect level in the assay on Plasmodium berghei (ED50) was put at a dose of 0.6 mg/kg/day.
In the case of `O=C(C[C@@H]1NCCC[C@H]1O)Cn1cnc2ccccc2c1=O` (stereo in doubt; (-)-1) [FEBRIFUGINE], the pEC50 in the assay with Plasmodium falciparum [2] is 6.70.

As usually defined, the ED50 is the midpoint of the dose-response relation. Lower therefore signals greater potency. As a reminder, the pEC50 is the negative decadic logarithm of the EC50, by convention in mol/L.

These data come from ChEMBL document CHEMBL3232880, “The chemistry and biology of febrifugine and halofuginone” (Bioorg Med Chem, 2014).
